Experimental data taken from publication PMC4164784, “4E-BPs require non-canonical 4E-binding motifs and a lateral surface of eIF4E to repress translation” (Nature Communications, 2014).
No end group written: not given here.

test system: eIF4E (II-AA mutant)–eIF4G complex; assay: Competition assay, displacement of GST-eIF4G from preassembled eIF4E (II-AA)–eIF4G complexes; format: biochemical, Drosophila melanogaster; conditions: Fig. 4; 2 μM complex, GB1-fused competitor, 20 min at 4 °C, Strep-Tactin pull down; n=2
Protocol: To obtain the preassembled eIF4E–eIF4G complexes used in Figs 4 and 5d–g, full-length eIF4E (WT or the II-AA mutant) containing an N-terminal SNH-tag was coexpressed with an N-terminal GST-tagged eIF4G (residues 578–650). The cells were lysed by sonication in lysis buffer containing 50 mM HEPES (pH 7.2), 300 mM NaCl and 2 mM DTT. The complexes were purified from the cleared lysates using Protino Glutathione Agarose 4B beads (Machery-Nagel). The complex was further purified using a heparin column (HiTrap Heparin HP 5 ml, GE Healthcare) and a final size exclusion chromatography (Superdex 200 16/60, GE Healtcare) in 20 mM HEPES (pH 7.2), 200 mM NaCl and 2 mM DTT.
For the titration experiments shown in Fig. 4, 2 μM of purified complexes containing SHN-eIF4E (WT or II-AA mutant) bound to GST-eIF4G (residues 578–650) were incubated with increasing amounts (2–20 μM) of purified competitor proteins for 20 min at 4 °C. The eIF4E-bound proteins were recovered via Strep-Tactin Sepharose pull down and eluted with lysis buffer containing 2.5 mM desthiobiotin. The proteins were analyzed by 15% SDS–PAGE followed by staining with Coomassie blue staining. […]
presence of MBP (negative control), increasing amounts of 4E-BP peptides or eIF4G-GB1 in […]
The amounts of GST-eIF4G bound to eIF4E in each experimental condition were determined using the Image J software after Coomassie blue staining. To rule out the possibility that changes in the amount of GST-eIF4G bound to eIF4E resulted from variations in the loading volume, all values were normalized to the levels of SHN-eIF4E present in each condition. These values were set to 100 in the presence of MBP.
Each experiment was repeated at least twice. (e,f) Quantification of the experiments shown in Fig. 5d–g. The amounts of GST-eIF4G remaining bound to eIF4E in the presence of MBP, 4E-BP peptides or eIF4G-GB1 were normalized to those of eIF4E and set to 100 in the presence of MBP. […]
micrographs of fixed S2 cells expressing HA-4E-T and GFP-Tral. The localization of HA-4E-T was determined by indirect immunofluorescence using an anti-HA antibody. […]

Substance	displacement of eIF4G from eIF4E II-AA–eIF4G complex (in words)
4E-T C+NC: 4E-T residues 9–44, eIF4E-binding region short, C-terminal GB1	did not efficiently displace eIF4G
CUP C+NC: CUP residues 325–376, eIF4E-binding region short, C-terminal GB1 (KSYTRSRLMDIRNGMFNALMHRSKESFVMPRIATCDDIELEGRLRRMNIWRT-GB1; UniProt Q9VMA3 325-376, looked up, fragment)	did not efficiently displace eIF4G
Thor C+NC: Thor residues 50–83, eIF4E-binding region short, C-terminal GB1 (TKLIYERAFMKNLRGSPLSQTPPSNVPSCLLRGT-GB1; UniProt Q9XZ56 50-83, looked up, fragment)	did not efficiently displace eIF4G
